Experimental data taken from US8003649B2 (AstraZeneca AB, priority 2007, dated 2011).

How the values were obtained:
[1] = target: T1, Androgen Receptor (AR) (Homo sapiens, UniProt P10275, T878A); assay: LNCaP Androgen Receptor Down-regulation Cell Assay (immunofluorescence end point); assay type: cell-based; conditions: LNCaP prostate carcinoma cells, compound incubation 20-22 hours, 50% reduction of the AR signal; read-out: Androgen Receptor Down-regulation Assay (a) IC50/μM
T1 construct: cell based immuno-fluorescence assay using the LNCaP prostate epithelial cell line; endogenous in cells; host or cells: LNCaP clone FGC (ATCC CRL-1740)
T1 sequence (P10275 1-920 T878A): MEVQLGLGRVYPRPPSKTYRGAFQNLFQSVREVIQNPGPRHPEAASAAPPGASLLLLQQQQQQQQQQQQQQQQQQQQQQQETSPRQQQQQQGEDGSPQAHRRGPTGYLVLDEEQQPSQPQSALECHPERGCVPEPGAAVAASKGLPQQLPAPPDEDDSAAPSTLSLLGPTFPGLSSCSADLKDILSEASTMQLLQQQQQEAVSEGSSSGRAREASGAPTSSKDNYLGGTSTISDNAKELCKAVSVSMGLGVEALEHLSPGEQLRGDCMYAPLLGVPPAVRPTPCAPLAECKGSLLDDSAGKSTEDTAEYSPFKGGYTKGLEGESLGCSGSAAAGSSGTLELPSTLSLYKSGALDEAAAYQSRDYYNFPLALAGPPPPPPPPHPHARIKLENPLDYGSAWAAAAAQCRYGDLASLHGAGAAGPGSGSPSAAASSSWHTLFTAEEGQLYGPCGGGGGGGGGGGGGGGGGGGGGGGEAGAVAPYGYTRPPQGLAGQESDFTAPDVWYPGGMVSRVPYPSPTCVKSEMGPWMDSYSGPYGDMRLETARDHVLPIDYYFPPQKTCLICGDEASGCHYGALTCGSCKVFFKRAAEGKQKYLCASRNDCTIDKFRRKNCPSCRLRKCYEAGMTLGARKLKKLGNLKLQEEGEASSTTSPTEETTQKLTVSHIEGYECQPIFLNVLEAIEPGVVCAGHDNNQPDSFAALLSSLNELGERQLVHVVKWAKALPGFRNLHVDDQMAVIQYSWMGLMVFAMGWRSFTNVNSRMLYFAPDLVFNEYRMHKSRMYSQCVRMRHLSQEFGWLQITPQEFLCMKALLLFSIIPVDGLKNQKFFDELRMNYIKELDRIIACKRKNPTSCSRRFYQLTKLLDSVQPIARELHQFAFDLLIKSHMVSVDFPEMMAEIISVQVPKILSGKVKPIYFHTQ
Method in brief: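 AR loss reported as IC50 from curve fits of fluorescence dose-response data, with AR immunostained and read by laser-scanning cytometry. Compound exposure was 20-22 h at 37° C in LNCaP cells grown in 5% charcoal-stripped FBS and plated overnight beforehand.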

[2] = target: T2, isolated rat AR-LBD (Rattus norvegicus, UniProt P15207); assay: Androgen Receptor Ligand Binding Domain competitive binding assay, Fluorescence Polarisation (PolarScreen); conditions: 50% reduction in tracer compound binding to AR-LBD; read-out: Androgen Receptor FP Ligand-Binding Assay IC50/μM
T2 construct: purchased Invitrogen PV4293
T2 sequence (P15207 651-882 limits assumed): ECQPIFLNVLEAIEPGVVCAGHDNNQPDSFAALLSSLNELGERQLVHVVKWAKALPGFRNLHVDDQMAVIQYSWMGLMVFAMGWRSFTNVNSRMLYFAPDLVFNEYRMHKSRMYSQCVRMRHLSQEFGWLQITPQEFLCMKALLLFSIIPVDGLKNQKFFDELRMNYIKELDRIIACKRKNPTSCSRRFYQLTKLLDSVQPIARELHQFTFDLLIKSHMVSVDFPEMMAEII
Description: b) Androgen Receptor—Ligand Binding Domain Competitive Binding Assay
(§1) The ability of compounds to bind to isolated Androgen Receptor Ligand binding domain (AR-LBD) was assessed in competition assays using either a Fluorescence Polarisation (FP) or a LanthaScreen™ Time-Resolved Fluorescence Resonance Energy Transfer (TR-FRET) detection end-point.
For the FP test, an assay test kit was purchased from Invitrogen and used to measure compound binding to the isolated rat AR-LBD which shares 100% sequence identity to the human AR-LBD. The Invitrogen PolarScreen™ Androgen Receptor Competitor Assay Red (Product Code No. PV4293), is a fluorescence polarisation (FP)-based competition assay which measures if test compound can displace a fluorescently-labelled tracer compound. If the test compound binds to the AR-LBD it will prevent the formation of the receptor/tracer complex, which will result in a low polarisation value. […] The assay was performed as essentially described in the Invitrogen method with the exception that the final assay volume was 12 μl and this required an appropriate low volume black 384 well microtitre plate. Compounds were dosed directly from a compound source microplate containing serially diluted compound (4 wells containing 10 mM, […], 1 μM and 10 nM final compound respectively) to an assay microplate using the Labcyte Echo 550. The Echo 550 is a liquid handler that uses acoustic technology to perform direct microplate-to-microplate transfers of DMSO compound solutions and the system can be programmed to transfer multiple small nL volumes of compound from the different source plate wells to give the desired serial dilution of compound in the assay which is then back-filled to normalise the DMSO concentration across the dilution range. FP dose response data obtained with each compound was exported into a suitable software package (such as Origin) to perform curve fitting analysis. Competitive AR binding was expressed as an IC50 value. This was determined by calculation of the concentration of compound that was required to give a 50% reduction in tracer compound binding to AR-LBD.

[3] = target: T3, rat GST-tagged AR-LBD (Rattus norvegicus, UniProt P15207); assay: LanthaScreen TR-FRET AR Binding Assay; conditions: n = 2; 12-point concentration response up to 100 μM
T3 construct: purchased Invitrogen
T3 sequence (P15207 651-882 limits assumed): T2 sequence (P15207 651-882 limits assumed)
Description: as §1
For LanthaScreen™ TR-FRET, a suitable fluorophore (Product code PV4294) and rat GST-tagged AR-LBD were purchased from Invitrogen and used to measure compound binding. The assay principle is that AR-LBD is added to a fluorescent ligand to form a receptor/fluorophore complex. A terbium-labelled anti-GST antibody is used to indirectly label the receptor by binding to a GST tag, and competitive binding is detected by a test compounds' ability to displace the fluorescent ligand resulting in a loss of TR-FRET signal between the Tb-anti-GST antibody and the tracer. The assay was performed as follows with all reagent additions carried out using the Thermo Scientific Matrix PlateMate:— • 1. […]
Compounds were dosed directly from a compound source microplate containing serially diluted compound (4 wells containing 10 mM, 0.1 mM, 1 μM and 10 nM final compound respectively) to an assay microplate using the Labcyte Echo 550. […] Competitive AR binding was expressed as an IC50 value. This was determined by calculation of the concentration of compound that was required to give a 50% reduction in tracer compound binding to AR-LBD.

FC(F)(F)Cc1nnc2ccc(N3CCN(C(c4ccccc4)c4ccccc4)CC3)nn12 [Example 4, 6-(4-benzhydrylpiperazin-1-yl)-3-(2,2,2-trifluoroethyl)-[1,2,4]triazolo[4,3-b]pyridazine]
DC50 [1]: 2.5 µM | IC50 [2]: 20.2 µM

FC(F)(F)c1nnc2ccc(N3CC4CC3CN4Cc3ccccc3)nn12 (centres unmarked) [Example 41, 6-(5-benzyl-2,5-diazabicyclo[2.2.1]heptan-2-yl)-3-(trifluoromethyl)-[1,2,4]triazolo[4,3-b]pyridazine]
IC50 [2]: 19.6 µM

CS(=O)(=O)c1ccc(CN2CCCN(c3ccc4nnc(C(F)(F)F)n4n3)CC2)cc1 [Example 166, 6-[4-[(4-methylsulfonylphenyl)methyl]-1,4-diazepan-1-yl]-3-(trifluoromethyl)-[1,2,4]triazolo[4,3-b]pyridazine]
DC50 [1]: 0.93 µM | IC50 [2]: 6.09 µM

FC(F)(F)c1ccccc1CN1CCCN(c2ccc3nnc(C(F)(F)F)n3n2)CC1 [Example 174, 3-(trifluoromethyl)-6-[4-[[2-(trifluoromethyl)phenyl]methyl]-1,4-diazepan-1-yl]-[1,2,4]triazolo[4,3-b]pyridazine]
DC50 [1]: 0.94 µM | IC50 [2]: 16.3 µM

Cc1ccccc1CN1CCCN(c2ccc3nnc(C(F)(F)F)n3n2)CC1 [Example 183, 6-[4-[(2-methylphenyl)methyl]-1,4-diazepan-1-yl]-3-(trifluoromethyl)-[1,2,4]triazolo[4,3-b]pyridazine]
IC50 [2]: 14.4 µM

OC1(c2cccnc2)CCN(c2ccc3nnc(C(F)(F)F)n3n2)CC1 [Example 511, 4-pyridin-3-yl-1-[3-(trifluoromethyl)[1,2,4]triazolo[4,3-b]pyridazin-6-yl]piperidin-4-ol]
IC50 [3]: > 100 µM

Cn1nccc1CCOc1ccc(C2CCN(c3ccc4nnc(C(F)(F)F)n4n3)CC2)cc1 [Example 513, 6-[4-[4-[2-(1-methyl-1H-pyrazol-5-yl)ethoxy]phenyl]piperidin-1-yl]-3-(trifluoromethyl)[1,2,4]triazolo[4,3-b]pyridazine]
DC50 [1]: 0.24 µM | IC50 [3]: 1.3 µM
